Tested on: HCV NS5A replicon GT-1a
Assay: HCV NS5A replicon anti-viral activity (EC50), dual-reporter Renilla luciferase, GT-1a
Type: cell-based
Settings: Hepatitis C virus, GT1A, read-out: NS5A Inhibitory Activity (EC50 of GT-1a subtype inhibition)
Description: The autonomous replication level of HCV in liver cells in vitro is very low, and the only animal that can be infected by HCV is chimpanzee, therefore there is no appropriate animal model currently available for preclinical pharmacodynamic study. Some researchers have transplanted human liver tissue infected with HCV in vitro into immune deficient mice to establish an in vivo mice model, but these mice are hard to raise and the model is unstable and short of normal immunologic reaction. Moreover, the model has significant difference with the pathogenic process of hepatitis C, therefore, it has not been used for animal model to assess the action of anti-HCV medicine yet. The progress of the development of anti-viral drugs for the treatment of HCV infection had been very slow because the pathogenic mechanism and life cycle of HCV were unclear before 1999 due to the lack of cell culture system for effective multiplication of HCV. But researchers managed to achieve a breakthrough in 1999 after numerous attempts. An effective cell culture model-replicon system in which HCV is capable of autonomous replication in transfected human hepatic carcinoma cell line Huh-7 had been established in that year on the basis of subgenomic HCV RNA built with genetic engineering.
The above-mentioned cell culture model-replicon system which has been widely accepted in the industry is used in this invention for ex vivo experiments and subsequent assessment of drugs based on the experiment results.
The therapeutic effect of the compounds of this invention on HCV infection can be preliminarily assessed through the following preclinical in vitro inhibitory action test and can be further confirmed in clinical trials. Other methods used in the invention are also quite familiar to professionals in this field with ordinary technical knowledge. Method for testing the anti-viral activity(EC50) in HCV NS5A replicon system: • The viral replication level in infected cells was determined by testing Renilla luciferase with the newly established dual-reporter gene replicon system. There was a good linear relation between the expression level of the reporter gene and the HCV RNA replication level and viral protein expression level. The anti-viral activity was determined for 3 replicates in 3 replicate cells at five(5) 1:2 diluted concentration gradients, with 1 to 2 positive controls. The EC50 of the compounds was calculated in the end.
The compounds of the invention, or their stereoisomers, tautomers, esterified or amidated prodrugs, or pharmaceutically acceptable salts and mixtures have been subjected to test to determined their therapeutic effects in the treatment of HCV infection. […] Moreover, the results of 6a-6ep(Ia), 6fa-6gq(Ib) and reference compounds Ref-1(BMS-790052), Ref-2(GS5885), Ref-3 in HCV-NS5 inhibition test reveal that the cyclopentanyl/hexamethyleneamino radical containing linear polypeptide compounds 6a-6ep, 6fa-6gq and reference compounds Ref-1, Ref-2, Ref-3 have good HCV inhibitory results. […] The replicons GT-1a, GT-lb, GT-2a, GT-3a, GT-4a, GT-5a and GT-6a used for the test are routine replicons commercially available in this field. Table 1: HCV NS5A replicon inhibitory activity test results of compounds (6a-6gq) of the invention

Structure (SMILES) | EC50 [nM]
CC(C)[C@H](NC(=O)OC(C)(C)C)C(=O)N1C[C@H](OC(=O)N2Cc3cc4c(cc3C2)OCO4)C[C@H]1c1nc(-c2ccc(-c3ccc(-c4cnc([C@@H]5C[C@@H](OC(=O)N6Cc7cc8c(cc7C6)OCO8)CN5C(=O)[C@@H](NC(=O)OC(C)(C)C)C(C)C)[nH]4)cc3)cc2)c[nH]1 [6p] | > 50

Same assay, conditions: Hepatitis C virus, GT1A; GT-1a replicon; read-out: NS5A Inhibitory Activity (EC50 of GT-1a subtype inhibition)

Structure (SMILES) | EC50 [nM]
COC(=O)N[C@H](C(=O)N1CCC[C@H]1c1ncc(-c2ccc(-c3cc4sc(-c5cnc([C@@H]6CN(C(=O)N7Cc8cc9c(cc8C7)OCO9)CN6C(=O)[C@@H](NC(=O)OC)C(C)C)[nH]5)cc4s3)cc2)[nH]1)C(C)C [6bv] | 0.001 to 0.999
COC(=O)N[C@H](C(=O)N1CC=C[C@H]1c1nc2ccc(-c3csc4c(-c5ccc(-c6cnc([C@@H]7CCCN7C(=O)[C@@H](NC(=O)OC)C(C)C)[nH]6)cc5)csc34)cc2[nH]1)C(C)C [6fz] | 0.001 to 0.999
COC(=O)N[C@H](C(=O)N1CC=C[C@H]1c1nc(-c2ccc(-c3ccc(-c4cnc([C@@H]5C=CCN5C(=O)[C@@H](NC(=O)OC)C(C)C)[nH]4)cc3)cc2)c[nH]1)C(C)C [6bd] | 0.001 to 0.999
COC(=O)N[C@@H](C(=O)N1CCC[C@H]1c1ncc(-c2ccc(-c3cc4sc(-c5cnc([C@@H]6CCCN6C(=O)[C@H](NC(=O)OC)c6ccccc6)[nH]5)cc4s3)cc2)[nH]1)c1ccccc1 [Ref-3, reference compound] | 0.001 to 0.999
CC(C)[C@H](NC(=O)OC1CCCC1)C(=O)N1CC=C[C@H]1c1ncc(-c2ccc(-c3ccc(-c4c[nH]c([C@@H]5CCCN5C(=O)[C@@H](NC(=O)OC5CCCC5)C(C)C)n4)cc3)cc2)[nH]1 [6bg] | > 50
COC(=O)N[C@H](C(=O)N1CCC[C@H]1c1nc(-c2ccc(-c3ccc(-c4c[nH]c([C@@H]5C[C@H](Oc6nc7ccccc7nc6-c6cccs6)CN5C(=O)[C@@H](NC(=O)OC)C(C)C)n4)cc3)cc2)c[nH]1)C(C)C [6x] | 0.001 to 0.999
COC(=O)N[C@H](C(=O)N1CCC[C@H]1c1nc(-c2ccc(-c3ccc(-c4cnc([C@@H]5C=CCN5C(=O)[C@@H](NC(=O)OC(C)(C)C)C(C)C)[nH]4)cc3)cc2)c[nH]1)C(C)C [6bc] | 1 to 49.9
COC(=O)N[C@H](C(=O)N1CCC[C@H]1c1ncc(-c2ccc(-c3ccc(-c4cnc([C@@H]5CNCN5C(=O)[C@@H](NC(=O)OC)C(C)C)[nH]4)cc3)cc2)[nH]1)C(C)C [6cu] | 0.001 to 0.999
CC(C)[C@H](NC(=O)N(C)C)C(=O)N1CC=C[C@H]1c1ncc(-c2ccc(-c3ccc(-c4cnc([C@@H]5CCCN5C(=O)[C@@H](NC(=O)N(C)C)C(C)C)[nH]4)cc3)cc2)[nH]1 [6cg] | 0.001 to 0.999
COC(=O)N[C@H](C(=O)N1CC=C[C@H]1c1ncc(-c2ccc3c(c2)OC(c2ccccc2)n2c-3cc3cc(-c4cnc([C@@H]5CCCN5C(=O)[C@@H](NC(=O)OC)C(C)C)[nH]4)ccc32)[nH]1)C(C)C (stereo partly shown) [6ej] | 0.001 to 0.999
COC(=O)NC(C(=O)N1CCC[C@H]1c1nc(-c2ccc(-c3ccc(-c4c[nH]c([C@@H]5C=CCN5C(=O)[C@@H](NC(=O)OC)C(C)C)n4)cc3)cc2)c[nH]1)c1ccccc1 (stereo partly shown) [6by] | 0.001 to 0.999
COC(=O)N[C@H](C(=O)N1CCCC[C@H]1c1nc(-c2ccc(-c3ccc(-c4c[nH]c([C@@H]5CCCN5C(=O)[C@@H](NC(=O)OC)C(C)C)n4)cc3)cc2)c[nH]1)C(C)C [6ab] | 0.001 to 0.999
COC(=O)N[C@H](C(=O)N1CC=C[C@H]1c1ncc(-c2ccc(-c3cccc4c(-c5cnc([C@@H]6CCCN6C(=O)[C@@H](NC(=O)OC)C(C)C)[nH]5)cccc34)cc2)[nH]1)C(C)C [6ef] | 0.001 to 0.999
COC(=O)NC(C(=O)N1CC=C[C@H]1c1nc(-c2ccc(-c3cc4sc(-c5c[nH]c([C@@H]6C=CCN6C(=O)C(NC(=O)OC)c6ccccc6)n5)cc4s3)cc2)c[nH]1)c1ccccc1 (stereo partly shown) [6cd] | > 50
COC(=O)N[C@H](C(=O)N1CC=C[C@H]1c1nc2ccc(-c3csc4c(-c5cnc([C@@H]6CCCN6C(=O)[C@H](NC(=O)OC)c6ccccc6)[nH]5)csc34)cc2[nH]1)C(C)C [6gn] | 0.001 to 0.999
COC(=O)N[C@H](C(=O)N1CCC[C@H]1c1ncc(-c2cc3oc(-c4ccc(-c5cnc([C@@H]6C=CCN6C(=O)[C@H](NC(=O)OC)c6ccccc6)[nH]5)cc4)cc3s2)[nH]1)C(C)C [6fp] | 0.001 to 0.999
COC(=O)N[C@H](C(=O)N1CC=C[C@H]1c1ncc(-c2ccc(-c3ccc(-c4cnc([C@@H]5CN(C(=O)OC(C)C)CN5C(=O)[C@@H](NC(=O)OC)C(C)C)[nH]4)cc3)cc2)[nH]1)C(C)C [6dc] | 0.001 to 0.999

Structure (SMILES) | EC50 [nM]
COC(=O)N[C@H](C(=O)N1CC=C[C@H]1c1nc2ccc(-c3ccc(-c4ccc5nc([C@@H]6CCCN6C(=O)[C@@H](NC(=O)OC)C(C)C)[nH]c5c4)c4c3CC3(CCCCC3)C4)cc2[nH]1)C(C)C [6en] | 1 to 49.9
CNC(=O)N[C@H](C(=O)N1CC=C[C@H]1c1ncc(-c2ccc(-c3ccc(-c4cnc([C@@H]5CCCN5C(=O)[C@@H](NC(=O)NC)C(C)C)[nH]4)cc3)cc2)[nH]1)C(C)C [6ch] | 0.001 to 0.999
CC(C)[C@H](NC(=O)OC(C)(C)C)C(=O)N1CC=C[C@H]1c1nc(-c2ccc(-c3ccc(-c4cnc([C@@H]5C=CCN5C(=O)[C@@H](NC(=O)OC(C)(C)C)C(C)C)[nH]4)cc3)cc2)c[nH]1 [6be] | 0.001 to 0.999
COC(=O)N[C@H](C(=O)N1CCC[C@H]1c1ncc(-c2ccc(-c3csc4c(-c5ccc6nc([C@@H]7C=CCN7C(=O)[C@H](NC(=O)OC)c7ccccc7)[nH]c6c5)csc34)cc2)[nH]1)C(C)C [6ga] | 0.001 to 0.999
COC(=O)N[C@H](C(=O)N1CCC[C@H]1c1ncc(-c2csc3c(-c4ccc5nc([C@@H]6C=CCN6C(=O)[C@H](NC(=O)OC)c6ccccc6)[nH]c5c4)csc23)[nH]1)C(C)C [6gj] | 0.001 to 0.999
COC(=O)N[C@H](C(=O)N1CC=C[C@H]1c1nc2ccc(-c3cc4sc(-c5cnc([C@@H]6CCCN6C(=O)[C@@H](NC(=O)OC)C(C)C)[nH]5)cc4s3)cc2[nH]1)C(C)C [6gh] | 0.001 to 0.999
CNC(=O)N[C@H](C(=O)N1CC=C[C@H]1c1ncc(-c2ccc(-c3ccc(-c4cnc([C@@H]5CCCN5C(=O)[C@@H](NC(=O)OC)C(C)C)[nH]4)cc3)cc2)[nH]1)C(C)C [6cj] | 0.001 to 0.999
COC(=O)NC(C(=O)N1CCC[C@H]1c1ncc(-c2cc3sc(-c4ccc(-c5cnc([C@@H]6CN(C(=O)N7Cc8cc9c(cc8C7)OCO9)CN6C(=O)[C@@H](NC(=O)OC)C(C)C)[nH]5)cc4)cc3s2)[nH]1)c1ccccc1 (stereo partly shown) [6bw] | 0.001 to 0.999
COC(=O)NC(C(=O)N1CC=C[C@H]1c1ncc(-c2ccc(-c3ccc(-c4cnc([C@@H]5CCCN5C(=O)C(NC(=O)OC)c5ccccc5)[nH]4)cc3)cc2)[nH]1)c1ccccc1 (stereo partly shown) [6bz] | 0.001 to 0.999
COC(=O)N[C@H](C(=O)N1CCC[C@H]1c1nc2ccc(-c3csc4c(-c5ccc(-c6cnc([C@@H]7C=CCN7C(=O)[C@H](NC(=O)OC)c7ccc(C)cc7)[nH]6)cc5)csc34)cc2[nH]1)C(C)C [6fw] | 0.001 to 0.999
COC(=O)N[C@H](C(=O)N1CCC[C@H]1c1ncc(-c2ccc(-c3ccc(-c4cnc([C@@H]5C=CCN5C(=O)[C@@H](NC(=O)OC)C5CCCC5)[nH]4)cc3)cc2)[nH]1)C(C)C [6dh] | 0.001 to 0.999
COC(=O)N[C@H](C(=O)N1CC=C[C@H]1c1ncc(-c2ccc(-c3csc4c(-c5c[nH]c([C@@H]6CCCN6C(=O)[C@@H](NC(=O)OC)C(C)C)n5)csc34)cc2)[nH]1)C(C)C [6fj] | 0.001 to 0.999
COC(=O)N[C@H](C(=O)N1CC=C[C@H]1c1nc(-c2csc3c(-c4ccc(-c5cnc([C@@H]6CCCN6C(=O)[C@H](NC(=O)OC)c6ccccc6)[nH]5)cc4)csc23)c[nH]1)C(C)C [6ft] | 0.001 to 0.999
COC(=O)N[C@H](C(=O)N1CC=C[C@H]1c1nc2ccc(-c3csc4c(-c5cnc([C@@H]6CCCN6C(=O)[C@@H](NC(=O)OC)C(C)C)[nH]5)csc34)cc2[nH]1)C(C)C [6gm] | 0.001 to 0.999
COC(=O)N[C@H](C(=O)N1CCC[C@H]1c1nc(-c2csc3c(-c4ccc(-c5cnc([C@@H]6C=CCN6C(=O)[C@H](NC(=O)OC)c6ccccc6)[nH]5)cc4)csc23)c[nH]1)C(C)C [6fk] | 0.001 to 0.999
COC(=O)N[C@H](C(=O)N1CC=C[C@H]1c1nc(-c2ccc(-c3ccc(-c4c[nH]c([C@@H]5COCCN5C(=O)[C@@H](NC(=O)OC)C(C)C)n4)cc3)cc2)c[nH]1)C(C)C [6bm] | 0.001 to 0.999

Same assay, conditions: Hepatitis C virus, genotype 1a / genotype 6a, read-out: Inhibitory activity against various HCV-NS5A subtypes(EC50, GT-1a to GT-6a) GT-1a

Structure (SMILES) | EC50 [nM]
COC(=O)N[C@H](C(=O)N1CC=C[C@H]1c1nc2ccc(-c3csc4c(-c5ccc(-c6cnc([C@@H]7CCCN7C(=O)[C@@H](NC(=O)OC)C(C)C)[nH]6)cc5)csc34)cc2[nH]1)C(C)C [6fz] | 0.007
COC(=O)N[C@@H](C(=O)N1CCC[C@H]1c1ncc(-c2ccc(-c3cc4sc(-c5cnc([C@@H]6CCCN6C(=O)[C@H](NC(=O)OC)c6ccccc6)[nH]5)cc4s3)cc2)[nH]1)c1ccccc1 [Ref-3, reference compound] | 0.051

Same assay, conditions: comparison drawn from Table 2

Structure (SMILES) | inhibitory activity compared with Ref-1(BMS-790052), Ref-2(GS5885), Ref-3 and Ref-4 (in words)
COC(=O)N[C@H](C(=O)N1CC=C[C@H]1c1nc2ccc(-c3csc4c(-c5ccc(-c6cnc([C@@H]7CCCN7C(=O)[C@@H](NC(=O)OC)C(C)C)[nH]6)cc5)csc34)cc2[nH]1)C(C)C [6fz] | significantly superior

— EP3153515A1, “COMPOUNDS FOR INHIBITING HEPATITIS C VIRUS, PHARMACEUTICAL COMPOSITIONS AND USES THEREOF” (priority 2014, dated 2015)
